Measured values: publication PMC9729826, “Hypoaminoacidemia underpins glucagon-mediated energy expenditure and weight loss” (Cell Reports Medicine, 2022)
Starred links: 1 amine or outer side, 2 acyl side, 3 side chain; linkers in the order of their positions; H or OH if unused. Non-standard residues stand in square brackets, D forms with d. Residues, ends and D or L forms follow the SMILES beside them. Groups on a side chain read outwards from the residue. *: point of attachment. C18 diacid = O=C(O)CCCCCCCCCCCCCCCCC(=O)*; γGlu = O=C(O)[C@H](CCC(=O)[*:2])N[*:1]; Aib = CC(C)(N)C(=O)O

Tests used:
Type in all cases: in vivo, mouse
[1] = tested on: diet-induced obese (DIO) C57BL/6 mice; assay: Total amino acid supplementation in G108-treated DIO mice; details: n = 8/group
Excerpt: Lean 10-week-old C57BL/6 mice (N = 32) were provided ad libitum a 60 kcal% high fat diet (diet D12492, Table S2) ad libitum for 8 weeks. Half of the animals were then provided with a high fat standard protein diet (D08091803, Table S2) or a high fat standard protein diet supplemented with additional total amino acids (SP + TAA diet, Formula 1, Table S3). From each diet group, animals were allocated to receive either 7.5 nmol/kg G108 or vehicle control (N = 8/group). The subsequent four treatment groups were as follows: Vehicle/SP diet, G108/SP diet, Vehicle/SP + TAA diet, G108/SP + TAA diet. Food intake and body weight was recorded every 48 h during the study. Baseline body composition analysis (EchoMRI) was carried out in addition body composition analysis on day 18. […]
To measure energy expenditure, DIO mice were placed into a Comprehensive Laboratory Animal Monitoring System (CLAMS, Columbus instruments, Columbus, US). […] Food intake was also measured electronically without the need to remove food. […] Feed efficiency was calculated as mg body weight change per kJ consumed.
(§1) Plasma total amino acids were measured using fluorometric-based ELISA kits as described (MAK002, Sigma-Aldrich, Ab65347, Abcam). Plasma FGF21 was measured using a fluorescent based ELISA kit (ab229382, Abcam). Plasma triglyceride, cholesterol and leptin were measured using ELISA kits (ab65336, ab65390, ab199082, Abcam). […]

Gcgr^Δliver mice = assay: Chronic study in hepatic-specific glucagon receptor knockout mice; details: 5 nmol/kg s.c. daily, 14 days, n = 7-8/group
Method: Age-matched (12-week-old) Gcgr^flox/flox:Alb-Cre + (Gcgr^Δliver) and Gcgr^flox/flox:Alb-Cre- (control) mice were subcutaneously administered daily with either 5 nmol/kg G108 or vehicle control (HPLC water) for 14 days (N = 7–8/group). All mice were single-housed and had ad libitum access to water and a standard (20 kcal%) protein diet (diet D11112201, Table S2). Food intake and body weight were measured daily prior to administration of peptide each day. EchoMRI analysis was carried out at baseline and day 14. Tail venesection was carried out 4-h post-dose on day 14. Blood samples were immediately transferred on ice, centrifuged at 2800 × g for 10 min prior to plasma total amino acid analysis.
Food intake was measured daily using a dedicated weighing scale and topped up accordingly. Body weight was recorded at 9 am daily or every 48 h using the same weighing scale. Body composition was measured using an EchoMRI analyser at various timepoints during chronic studies. […] Each scan lasted approximately 90 s where lean mass and fat mass were recorded in grams. […]
as §1

lean C57BL/6 mice = assay: Hepatic gene expression 24 h after a single dose in lean mice; details: 20 nmol/kg single s.c. dose, liver at 24 h, qPCR, n = 4/group
Method: Twelve weight-matched 12-week-old lean C57BL/6 mice were fasted for 2 h prior to a single intraperitoneal injection of 10 nmol/kg dose of G108 diluted in sterile HPLC water (pH > 7), or vehicle control alone. Tail venesection was performed at baseline, 15, 30, 60 and 120 min and blood glucose measured using a handheld GlucoRx meter. For hepatic carbohydrate and amino acid metabolism gene expression analysis, weight-matched 12-week-old lean C57BL/6 mice were subcutaneously administered with 20 nmol/kg G108 diluted in sterile HPLC water (pH > 7), or vehicle control via subcutaneous injection at 9 am (N = 8). All animals had ad libitum access to RM1 diet and water. Liver tissue was dissected at 24 h and stored at −80°C prior to hepatic gene expression analysis.
RNA was extracted from liver, muscle and BAT tissue using 1 mL TRIzol added to samples prior to homogenisation within a mechanical homogeniser for 2–3 min. Chloroform was added to each individual sample prior to gentle shaking and centrifugation at 16000 × g for 15 min. […] RNA was quantified in addition to quality assessed using a NanoDrop spectrophotometer and 1 μg of RNA was then used for the synthesis of cDNA using the iScript cDNA synthesis Kit (Bio-Rad). Quantitative polymerase chain reaction (qPCR) was then undertaken using the SYBR-Green method using KiCqStart SYBR Green primers (Merck).

C57BL/6 mice = assay: Single-dose G108 EE and plasma amino acid study in metabolic cages; details: for plasma total amino acids after a single injection / energy expenditure after a single injection: mice on SP diet
Method: Lean 10-week-old C57BL/6 mice (N = 20) were provided ad libitum a 60 kcal% high fat diet (diet D12492, Table S2) for 10 days. They were then switched to either a standard protein high fat diet (D08091803) or a high protein high fat diet (D08091801) (N = 10/group) for 1 week prior to commencing the study. All mice were then placed into metabolic cages, individually housed, and allowed to acclimatise for 24 h. On day 2, baseline metabolic readings were obtained prior to single dose administration of 7.5 nmol/kg G108 on day 3 at 9 am. Metabolic readings were subsequently obtained over the following 48 h prior to single dose administration of 20 nmol/kg G108 on day 5. On day 8, all mice were removed from the metabolic cages and returned to their home cages. A parallel study was then carried out whereby venous blood samples were collected at baseline and daily following single dosing with either 7.5 nmol/kg or 20 nmol/kg G018. Blood samples were transferred on ice immediately for centrifugation as previously described. Samples were stored at −80°C prior to measurement of plasma total amino acids.
To measure energy expenditure, DIO mice were placed into a Comprehensive Laboratory Animal Monitoring System (CLAMS, Columbus instruments, Columbus, US). Measurement of oxygen consumption and carbon dioxide production was taken at 20 min intervals. Food intake was also measured electronically without the need to remove food. Each cohort of mice were placed into the CLAMS system with daily weighing of body weight prior to administration of the allocated treatment at 9 am. Following administration of treatment, mice were placed back into the metabolic cages with ad libitum access to their allocated diet. For studies with the low amino acid (LAA) diet in metabolic cages, animals were not removed from the metabolic cages until the end of the experiment and had ad libitum access to either standard protein or low amino acid diets. Feed efficiency was calculated as mg body weight change per kJ consumed.
Plasma total amino acids were measured using fluorometric-based ELISA kits as described (MAK002, Sigma-Aldrich, Ab65347, Abcam). Plasma FGF21 was measured using a fluorescent based ELISA kit (ab229382, Abcam). Plasma triglyceride, cholesterol and leptin were measured using ELISA kits (ab65336, ab65390, ab199082, Abcam). Individual amino acids were measured using Gas Chromatography/Mass Spectrometry (WellChild laboratory, Evelina Children’s Hospital, St Thomas’s Hospital, London).

## CC[C@H](C)[C@H](NC(=O)[C@H](Cc1ccccc1)NC(=O)[C@H](CCC(=O)O)NC(=O)[C@H](CCC(N)=O)NC(=O)[C@H](C)NC(=O)[C@H](CCCNC(=N)N)NC(=O)[C@H](CCCCN)NC(=O)[C@H](C)NC(=O)[C@H](CC(=O)O)NC(=O)[C@H](CC(C)C)NC(=O)[C@H](Cc1ccc(O)cc1)NC(=O)[C@H](CCCNC(=N)N)NC(=O)[C@H](CO)NC(=O)[C@H](Cc1ccc(O)cc1)NC(=O)[C@H](CC(=O)O)NC(=O)[C@H](CO)NC(=O)[C@@H](NC(=O)[C@H](Cc1ccccc1)NC(=O)[C@@H](NC(=O)CNC(=O)[C@H](Cc1c[nH]cn1)NC(=O)C(C)(C)NC(=O)[C@@H](N)Cc1c[nH]cn1)[C@@H](C)O)[C@@H](C)O)C(=O)N[C@@H](CCC(=O)O)C(=O)N[C@@H](Cc1c[nH]c2ccccc12)C(=O)N[C@@H](CC(C)C)C(=O)N[C@@H](CC(C)C)C(=O)N[C@@H](CCC(N)=O)C(=O)N[C@@H](CO)C(=O)N[C@@H](Cc1c[nH]cn1)C(=O)N[C@@H](Cc1c[nH]cn1)C(=O)N[C@@H](CCC(N)=O)C(=O)N[C@@H](Cc1c[nH]cn1)C(=O)N[C@@H](Cc1c[nH]cn1)C(=O)N1CCC[C@H]1C(=O)N[C@@H](CO)C(=O)N1CCC[C@H]1C(=O)N1CCC[C@H]1C(=O)N1CCC[C@H]1C(=O)N[C@@H](CCCCNC(=O)[C@H](CC(N)=O)NC(=O)CC[C@H](NC(=O)CCCCCCCCCCCCCCCCC(=O)O)C(=O)O)C(N)=O [Peptide G108] (H-H[Aib]HGTFTSDYSRYLDAKRAQEFIEWLLQSHHQHHPSPPPK([Asn-γGlu-C18 diacid])-NH2; N-terminus and C-terminus assumed)
[1]; 7.5 nmol/kg daily, 20 days
  body weight on SP diet supplemented with total amino acids (SP + TAA): prevented G108-mediated weight loss independent of food intake
[1]; single 7.5 nmol/kg dose, following a transient increase
  blood glucose over 4 hours after acute administration: reduction in blood glucose that lasted several hours
Gcgr^Δliver mice
  effects on body weight, lean mass and plasma amino acids in mice lacking the hepatic GCGR: completely refractory
Lean C57BL/6 mice
  expression of hepatic amino acid catabolism (urea cycle) genes: increased the expression of a number of genes involved in amino acid catabolism
  expression of hepatic gluconeogenic enzymes: increased the expression of hepatic gluconeogenic enzymes
C57BL/6 mice; single 7.5 nmol/kg dose, n = 10/group
  plasma total amino acids after a single injection: transient reduction in plasma amino acids
C57BL/6 mice; single 7.5 nmol/kg dose, up to 48 h, n = 10/group
  energy expenditure after a single injection: trend toward increased EE
C57BL/6 mice; single 20 nmol/kg dose, n = 9-10/group
  plasma total amino acids after a single injection: sustained reduction in plasma amino acids
C57BL/6 mice; single 20 nmol/kg dose, up to 72 h, n = 9-10/group
  energy expenditure after a single injection: significantly increased EE response
C57BL/6 mice; single 7.5 and 20 nmol/kg doses, HP diet
  hypoaminoacidemia and EE in mice fed the HP diet: protected against G108-stimulated hypoaminoacidemia and EE at both doses
